Columns and labels:
[1] = test system: Salmonella outer membrane; experiment: Outer membrane permeabilization (NPN fluorescence); assay type: cell-based, Salmonella enterica serovar Typhimurium strain SL1344; design: key to Outer membrane permeation: +++: Effect strength is represented by additional (+) signs.; ++: Effect strength is represented by additional (+) signs.; Effect strength is represented by additional (+) signs; conditions: for Outer membrane permeation: ASO conjugated to the carrier peptide, 10 µM, NPN fluorescence, summary grade; for Outer membrane permeabilization, NPN fluorescence (in words): KFF-ASOs 10 µM, CTAB 10 µM, PMXB 0.4 µM, added after 14 min
Description: Because the negASOs are ineffective in bacterial cells despite their activity in cell-free systems, we investigated if these ASOs affected the ability of the KFF carrier peptide to induce OM permeabilization. Therefore, we used the hydrophobic fluorophore N-phenylnaphthylamine (NPN), a dye that turns fluorescent after binding to hydrophobic regions within cell membranes. This only occurs in cells with a compromised OM ([Ghosh et al. 2016]; [Ellis et al. 2019]). […] However, when conjugated to negASOs, the KFF carrier is unable to permeabilize the OM (Fig. 10). This could potentially be due to electrostatic interactions between the negASOs and the positively charged KFF.
The experiments were performed by modifying previously published protocols ([Ghosh et al. 2016]; [Ellis et al. 2019]; [Zheng et al. 2021]). Salmonella (WT SL1344, JVS-1574) were grown overnight in 4 mL MHB medium at 37°C (with shaking at 220 rpm). Then the culture was diluted 1:100 and grown until OD600 0.5 (∼2 × 10^8 cfu/mL). This culture was harvested and washed two times with 5 mM HEPES and further diluted to OD600 0.2 in 5 mM HEPES supplemented with 5 mM Glucose (pH 7.2). These cells were then incubated with NPN (Sigma) at a final concentration of 10 µM. One hundred and ninety microliters of NPN-treated cells were transferred into 96-well back plates with transparent bottoms and fluorescence (excitation = 350 nm, emission = 420 nm) was recorded for 60 min (reading was performed every minute) using a Synergy H1 plate reader (Biotek). On the 14th minute, 10 µL of the test compounds (10 µM final concentration) was added into the wells. CTAB (Sigma) 10 µM (final concentration) or PMXB (Sigma) (final concentration of 0.4 µM) were used as positive controls, while water was used as negative control. The fluorescence of the wells was monitored using the same settings as above. The plots were created using OrginPro 2023. The experiment was performed twice and Figure 10 is a representative example of two independent experiments.

acpP mRNA = experiment: RNA-seq of KFF-ASO-treated Salmonella (acpP mRNA depletion); assay type: cell-based, Salmonella enterica serovar Typhimurium strain SL1344; design: key to acpP depletion (RNA-seq): +++: Effect strength is represented by additional (+) signs.; ++: Effect strength is represented by additional (+) signs.; Effect strength is represented by additional (+) signs; conditions: 15 min; for acpP depletion (RNA-seq): ASO conjugated to the carrier peptide, 5 µM, summary grade
Experimental: To assay bacterial responses to the different ASO modalities and to determine target mRNA depletion in cellulo, we performed RNA-seq analysis of Salmonella challenged with 5 µM KFF-ASO conjugates for 15 min. We first evaluated two individual RNA-seq experiments by principal component analysis (PCA) and observed three distinct clusters (Fig. 5). The PCA cluster 1 grouped the water control, RNA-MOE, RNA-OMe, and the PNA-treated conditions. […] Cluster 2 grouped the other negASOs. As we have previously observed for KFF peptide exposure ([Popella et al. 2021], [2022]), these treatments led to the activation of a cationic antimicrobial peptide (CAMP) response, including induction of the PhoP/Q and PmrA/B regulons involved in remodeling LPS, and the CpxR regulon that responds to envelope stress (Fig. 7). […] These treatments also led to the down-regulation of genes responsible for the destruction of superoxide anion radicals (sodB) and those involved in manganese efflux (yebN) (Figs. 6 and 7). Finally, cluster 3 grouped samples of the unconjugated peptides and the PMO treatment. Similarly to cluster 2, these activated a strong CAMP response (Fig. 7).
RNA isolation was performed using previously published protocols ([Popella et al. 2021], [2022]). Bacterial overnight cultures were diluted 1:100 in fresh MHB and grown to OD600 0.5. The cultures were diluted to ∼10^6 cfu/mL in noncation-adjusted MHB. […]
Total RNA was purified from bacterial pellets using the miRNeasy Mini kit (Qiagen) according to protocol #3 described in [Popella et al. (2021]). […] RNA concentration was measured with a NanoDrop spectrophotometer.
For transcriptomic analyses, RNA samples were processed and subjected to RNA-seq at the Core Unit SysMed (University of Würzburg). […] Sequencing of pooled libraries, spiked with 5% PhiX control library, was performed at 10 million reads/sample in single-end mode with 75 nt read length on the NextSeq 500 platform (Illumina) using High output sequencing kits. […]

Substance | Outer membrane permeation [1] | Outer membrane permeabilization, NPN fluorescence (in words) [1] | acpP depletion (RNA-seq) (acpP mRNA) | acpP mRNA levels after treatment (in words) (acpP mRNA; 5 µM KFF-ASO conjugates, RNA-seq)
PMO: phosphorodiamidate morpholino 10mer ASO, sequence CTCATACTCT, targeting acpP −5 to +5 (all phosphorodiamidate morpholino (PMO)) | ++ | this ability is retained upon conjugation | + | 
PNA: peptide nucleic acid 10mer ASO, sequence CTCATACTCT, targeting acpP −5 to +5 (all peptide nucleic acid (PNA)) | ++ | this ability is retained upon conjugation | ++ | reduces the levels of acpP mRNA
